According to ChEMBL document CHEMBL1201862, “PubChem BioAssay data set” (2004):
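Five compound concentrations were applied to cells in 96-well plates for 48 hours; endpoints were derived by simple linear interpolation of the resulting dose-response curve. GI50 marks 50% less growth.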 Active and inactive are the calls of the source. Cut-off read from the data, not from the text of the source: active = GI50 up to about 1.1 µM and inactive = higher.

Key:
Experiment in all cases: NCI tumour cell line growth inhibition, 48 h
[1] = tested on: SNB-19
[2] = tested on: HOP-62
[3] = tested on: LOX IMVI
[4] = tested on: OVCAR-4
[5] = tested on: SF-539
[6] = tested on: SF-268
[7] = tested on: KM12
[8] = tested on: ACHN
[9] = tested on: UACC-257
[10] = tested on: A498
[11] = tested on: OVCAR-5
[12] = tested on: NCI-H522
[13] = tested on: OVCAR-3
[14] = tested on: LXFL 529
[15] = tested on: K562
[16] = tested on: RXF 393
[17] = tested on: SK-MEL-28
[18] = tested on: SK-MEL-5

Measured: GI50

COC(=O)C1CC2CC(=NNC(N)=O)CC2C1 (centres undefined)
inactive: [1] > 100 µM | [2] > 100 µM | [3] > 100 µM | [4] > 100 µM | [5] > 100 µM | [6] > 100 µM | [7] > 100 µM | [8] > 100 µM | [9] > 100 µM | [10] > 100 µM | [11] > 100 µM | [12] > 100 µM | [13] > 100 µM | [14] > 100 µM | [15] > 100 µM | [16] > 100 µM | [17] > 100 µM | [18] > 100 µM

CC1CC(=O)Nc2ccccc2N1C(=O)CN1CCC(CCCCN(C)C)CC1 (centres undefined)
inactive: [1] > 100 µM | [2] > 100 µM | [3] > 100 µM | [4] > 100 µM | [5] > 100 µM | [6] > 100 µM | [7] > 100 µM | [8] > 100 µM | [9] > 100 µM | [10] > 100 µM | [11] > 100 µM | [12] > 100 µM | [13] > 100 µM | [14] > 100 µM | [15] > 100 µM | [16] > 100 µM | [17] > 100 µM | [18] > 100 µM

CCC12C=C(C(=O)OC)N3c4ccccc4C4CCN(CCC1)C2C43 (centres undefined)
inactive: [1] 72.4 µM | [2] 38.9 µM | [3] 59.4 µM | [4] 97.9 µM | [5] > 100 µM | [6] > 100 µM | [7] 48.3 µM | [8] 62.5 µM | [9] 34.2 µM | [10] 66.2 µM | [11] 40.9 µM | [12] 75.7 µM | [13] > 100 µM | [14] 87.1 µM | [15] 37.7 µM | [16] 53.2 µM | [17] 95.7 µM | [18] 72.1 µM
